Molecular target: T1, MAP3K5 (ASK1) (Homo sapiens, UniProt Q99683)
T1 construct: purchased Thermo Fisher Scientific (Life Technologies) SelectScreen
Experiment: SelectScreen LanthaScreen
Format: binding
Settings: read-out: % displacement
How it was run: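 Percent values come from Thermo SelectScreen profiling of NU5455, combining activity and binding assays. CSF1R was run in Z'LYTE format at Km app ATP, and CAMK1 in Adapta format with ATP listed at 10.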

T1 sequence (Q99683 whole entry): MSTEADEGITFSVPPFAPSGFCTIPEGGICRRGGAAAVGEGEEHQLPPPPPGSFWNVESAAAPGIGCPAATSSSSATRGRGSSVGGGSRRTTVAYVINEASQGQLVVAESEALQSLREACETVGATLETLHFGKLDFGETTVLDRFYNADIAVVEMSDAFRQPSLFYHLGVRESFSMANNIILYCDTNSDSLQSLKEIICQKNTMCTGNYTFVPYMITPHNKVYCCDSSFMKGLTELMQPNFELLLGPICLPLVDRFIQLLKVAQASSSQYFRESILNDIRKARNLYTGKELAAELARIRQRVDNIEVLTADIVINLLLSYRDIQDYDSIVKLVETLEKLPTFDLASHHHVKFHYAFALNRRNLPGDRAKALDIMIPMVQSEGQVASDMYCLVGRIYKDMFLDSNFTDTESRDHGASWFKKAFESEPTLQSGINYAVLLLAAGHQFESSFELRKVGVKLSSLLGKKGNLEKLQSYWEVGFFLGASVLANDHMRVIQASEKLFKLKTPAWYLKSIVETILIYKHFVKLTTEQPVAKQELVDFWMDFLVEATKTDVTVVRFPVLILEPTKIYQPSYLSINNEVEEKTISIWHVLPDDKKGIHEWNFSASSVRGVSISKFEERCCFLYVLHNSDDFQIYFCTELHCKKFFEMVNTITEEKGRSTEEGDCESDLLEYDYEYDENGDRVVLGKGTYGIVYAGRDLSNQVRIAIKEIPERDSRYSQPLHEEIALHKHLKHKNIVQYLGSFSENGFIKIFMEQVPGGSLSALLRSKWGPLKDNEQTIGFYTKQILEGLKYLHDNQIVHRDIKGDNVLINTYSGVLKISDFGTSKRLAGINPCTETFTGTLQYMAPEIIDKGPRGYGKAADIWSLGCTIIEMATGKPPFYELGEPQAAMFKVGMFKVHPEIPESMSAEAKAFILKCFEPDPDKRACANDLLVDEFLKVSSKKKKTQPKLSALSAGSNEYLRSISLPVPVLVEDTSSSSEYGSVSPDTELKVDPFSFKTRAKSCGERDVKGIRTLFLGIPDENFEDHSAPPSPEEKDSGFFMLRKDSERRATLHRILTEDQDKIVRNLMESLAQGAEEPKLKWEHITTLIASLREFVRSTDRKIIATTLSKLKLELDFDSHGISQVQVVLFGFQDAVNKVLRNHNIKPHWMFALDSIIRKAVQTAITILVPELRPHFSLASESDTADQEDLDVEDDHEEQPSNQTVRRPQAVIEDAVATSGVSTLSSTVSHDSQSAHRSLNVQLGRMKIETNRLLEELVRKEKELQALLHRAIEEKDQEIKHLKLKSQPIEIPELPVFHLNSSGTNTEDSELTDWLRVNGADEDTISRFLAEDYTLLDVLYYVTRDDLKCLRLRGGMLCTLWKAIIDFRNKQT

With CN(C(=O)CN1CCOCC1)c1ccc2sc3c(-c4cccc5c(=O)cc(N6CC7CCC(C6)O7)oc45)cccc3c2c1 [NU5455] the inhibition at 1 µM was 2.3%.

Source: paper PMC6934184, “Selective DNA-PKcs inhibition extends the therapeutic index of localized radiotherapy and chemotherapy” (The Journal of Clinical Investigation, 2019)
